This note sets out measurements from publication PMC3829776 (Nature chemical biology, 2013).

One may read the Ki as a dissociation constant, usually derived from enzyme kinetics or from competition with a known ligand. Higher therefore signals a looser hold on the target.

SMILES strings stand for the structures.

This test concerns the target T1, Adipose triglyceride lipase (ATGL) (Mus musculus, UniProt Q8BJ56).
T1 sequence (Q8BJ56 1-486): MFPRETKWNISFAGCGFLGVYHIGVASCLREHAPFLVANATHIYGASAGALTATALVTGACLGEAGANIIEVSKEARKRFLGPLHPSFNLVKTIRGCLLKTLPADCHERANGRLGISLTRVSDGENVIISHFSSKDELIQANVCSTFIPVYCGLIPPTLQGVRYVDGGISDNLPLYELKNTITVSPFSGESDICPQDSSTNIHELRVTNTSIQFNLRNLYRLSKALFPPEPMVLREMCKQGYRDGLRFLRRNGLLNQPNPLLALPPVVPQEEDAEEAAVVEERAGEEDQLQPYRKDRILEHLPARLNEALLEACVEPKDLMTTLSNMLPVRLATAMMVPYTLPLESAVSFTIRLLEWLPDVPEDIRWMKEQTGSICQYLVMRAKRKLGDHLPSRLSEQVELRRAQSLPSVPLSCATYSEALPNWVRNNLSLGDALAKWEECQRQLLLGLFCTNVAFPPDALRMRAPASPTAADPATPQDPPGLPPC
T1 sequence (Q9DBL9 1-351 partner): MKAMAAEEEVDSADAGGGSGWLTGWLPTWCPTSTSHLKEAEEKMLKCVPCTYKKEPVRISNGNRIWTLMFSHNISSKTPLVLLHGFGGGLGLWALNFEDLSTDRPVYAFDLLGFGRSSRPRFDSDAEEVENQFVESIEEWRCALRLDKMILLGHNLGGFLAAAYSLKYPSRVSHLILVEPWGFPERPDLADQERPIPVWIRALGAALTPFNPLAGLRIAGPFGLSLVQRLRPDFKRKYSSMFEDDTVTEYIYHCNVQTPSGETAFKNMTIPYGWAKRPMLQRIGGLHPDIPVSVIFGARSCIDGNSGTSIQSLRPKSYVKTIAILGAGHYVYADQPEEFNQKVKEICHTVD
The format is biochemical.

On to `CN(C)C(=O)Nc1cccc(-c2ccc(N(C)C)cc2)c1` [compound 4, Atglistatin], for which the affinity corresponds to a Ki of 355 ± 48 nM.
